± gives the standard deviation of the averaged measurements.
Columns and labels:
Assay in all cases: LOEC (log10 uM (lowest observed effect concentration))
Perfluorodecanoic acid = compound: O=C(O)C(F)(F)C(F)(F)C(F)(F)C(F)(F)C(F)(F)C(F)(F)C(F)(F)C(F)(F)C(F)(F)F [Perfluorodecanoic acid]
Procedure: (§1)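 BioMAP Diversity Plus panel in human primary cell co-cultures, 4 concentrations in duplicate blinded samples. Responses are log10 fold change versus DMSO control, processed with tcpl v2.1.0. A hit is called when responses at any concentration exceed the cutoff (the larger of 3*bmad or log10(1.2)); the lowest observed effect concentration (modl_ga, log10 uM) is reported for hits.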

[1] = compound: OCCCC(F)(F)C(F)(F)C(F)(F)C(F)(F)C(F)(F)C(F)(F)C(F)(F)F [7:3 Fluorotelomer alcohol]
Procedure: as §1

[2] = compound: OCCC(F)(F)C(F)(F)C(F)(F)C(F)(F)C(F)(F)C(F)(F)F [6:2 Fluorotelomer alcohol]
Procedure: as §1

[3] = compound: CCN(CCO)S(=O)(=O)C(F)(F)C(F)(F)C(F)(F)C(F)(F)C(F)(F)C(F)(F)C(F)(F)C(F)(F)F [N-Ethyl-N-(2-hydroxyethyl)perfluorooctanesulfonamide]
Procedure: as §1

[4] = compound: O=C(O)C(F)(F)C(F)(F)C(F)(F)C(F)(F)C(F)(F)C(F)(F)C(F)(F)C(F)F [9-H-Perfluorononanoic acid]
Procedure: as §1

[5] = compound: C[N+](C)(C)CCCNS(=O)(=O)C(F)(F)C(F)(F)C(F)(F)C(F)(F)C(F)(F)C(F)(F)C(F)(F)C(F)(F)F [Perfluorooctanesulfonamido ammonium iodide]
Procedure: as §1

Perfluoro-1-iodohexane = compound: FC(F)(F)C(F)(F)C(F)(F)C(F)(F)C(F)(F)C(F)(F)I [Perfluoro-1-iodohexane]
Procedure: as §1

[6] = compound: C=CC(=O)OCC(F)(F)C(F)(F)C(F)(F)C(F)(F)C(F)(F)C(F)(F)C(F)(F)F [1H,1H-Perfluorooctyl acrylate]
Procedure: as §1

[7] = compound: FC(F)(F)C(F)(F)C(F)(F)C(F)(F)C(F)(F)CCI [1-Iodo-1H,1H,2H,2H-perfluoroheptane]
Procedure: as §1

[8] = compound: O=S(=O)(O)C(F)(F)C(F)(F)C(F)(F)C(F)(F)C(F)(F)C(F)(F)F [Perfluorohexanesulfonic acid]
Procedure: as §1

Row | Test System | LOEC (log10 uM) (Perfluorodecanoic acid) | LOEC (log10 uM) [1] | LOEC (log10 uM) [2] | LOEC (log10 uM) [3] | LOEC (log10 uM) [4] | LOEC (log10 uM) [5] | LOEC (log10 uM) (Perfluoro-1-iodohexane) | LOEC (log10 uM) [6] | LOEC (log10 uM) [7] | LOEC (log10 uM) [8]
1 | 3C MCP1 down | 1.78 | 1.54 ± 0.34 | 1.78 | 1.3 | – | – | – | – | – | –
2 | hDFCGF TIMP1 down | 1.78 | 1.3 | 1.78 | – | – | – | – | – | – | –
3 | 3C ICAM1 down | 1.78 | 1.78 | 1.78 | – | – | – | – | – | – | –
4 | BT PBMCCytotoxicity up | – | – | – | – | 1.78 | – | – | – | – | –
5 | BE3C IP10 down | 0.845 | 1.78 | – | 1.3 | 1.78 | 1.78 | – | – | – | –
6 | hDFCGF MMP1 down | 1.3 | 1.3 | – | 1.78 | 1.3 | – | – | – | – | –
7 | MyoF MMP1 up | – | – | – | 1.3 | – | 1.78 | 1.3 | – | – | –
8 | BT PBMCCytotoxicity down | – | 1.3 | 1.78 | – | – | – | – | – | – | –
9 | LPS CD40 down | 1.78 | 1.78 | 1.78 | – | – | 1.78 | – | – | – | –
10 | 3C SRB down | 1.78 | 1.3 | 1.78 | 1.07 ± 0.32 | – | 1.78 | – | – | – | –
11 | BT xIL17F down | – | 1.3 | – | 1.3 | – | 1.3 | – | 1.3 | – | –
12 | hDFCGF TIMP2 down | 1.3 | 1.3 | 1.78 | – | – | – | – | – | – | –
13 | BF4T MCP1 down | 1.3 | 1.54 ± 0.34 | – | – | 0.573 ± 0.39 | – | – | – | – | –
14 | hDFCGF IL8 down | 1.78 | 1.3 | 1.78 | – | – | 1.78 | – | – | – | –
15 | MyoF CollagenIII down | 1.3 | 1.78 | – | 1.3 | – | 1.78 | 1.78 | – | – | –
16 | BF4T Eotaxin3 down | 1.3 | 1.31 ± 0.66 | – | – | 0.845 | – | – | – | 1.78 | –
17 | MyoF PAI1 down | 1.78 | 1.78 | – | – | – | 1.78 | 1.78 | – | – | –
18 | BF4T PAI1 down | 1.3 | 1.78 | – | – | 0.845 | – | – | – | – | –
19 | CASM3C Proliferation down | – | 1.3 | – | 1.3 | – | – | – | – | 1.54 ± 0.34 | –
20 | 3C TissueFactor down | 1.78 | 1.54 ± 0.34 | 1.78 | – | – | – | – | – | – | –
21 | BF4T ICAM1 down | 1.3 | 1.78 | – | – | 1.07 ± 0.32 | – | – | – | – | –
22 | SAg Proliferation down | 1.78 | 1.3 | 1.78 | 1.3 | – | 1.78 | – | – | – | –
23 | MyoF ACTA1 down | 1.78 | 1.78 | – | 1.3 | – | 1.3 | 1.3 | – | – | –
24 | hDFCGF ICAM1 down | 1.78 | 1.3 | 1.78 | – | – | – | – | – | – | –
25 | 3C HLADR down | 1.78 | 1.54 ± 0.34 | 1.78 | 1.78 | – | – | – | – | – | –
26 | 4H Pselectin up | – | – | – | – | 1.78 | – | – | – | – | –
27 | 3C uPAR down | 1.78 | 1.78 | 1.78 | – | – | – | – | – | – | –
28 | IMphg IL10 down | 1.78 | – | – | – | 1.78 | 1.3 | – | – | – | 1.78
29 | SAg PBMCCytotoxicity down | 1.78 | 1.3 | 1.78 | 1.54 ± 0.34 | – | – | – | – | – | –
30 | hDFCGF Proliferation down | 1.3 | 0.845 | 1.78 | 0.573 ± 0.39 | – | – | – | 1.78 | 1.3 | –

Source: the supplement of paper PMC10331698
